Patent US20100029710A1, “COMPOUNDS HAVING BOTH ANGIOTENSIN II RECEPTOR ANTAGONISM AND PPARy ACTIVATING ACTIVITIES” (Pfizer Products Inc., priority 2006, published 2010)

Assays:
[1] = biological target: T1, Human recombinant AT1 receptor (Homo sapiens, UniProt P30556); assay: AT1 receptor radioligand binding (flashplate); settings: 125I Sar1,Ile8-Angiotensin II radioligand
T1 construct: purchased
T1 sequence (P30556 1-359): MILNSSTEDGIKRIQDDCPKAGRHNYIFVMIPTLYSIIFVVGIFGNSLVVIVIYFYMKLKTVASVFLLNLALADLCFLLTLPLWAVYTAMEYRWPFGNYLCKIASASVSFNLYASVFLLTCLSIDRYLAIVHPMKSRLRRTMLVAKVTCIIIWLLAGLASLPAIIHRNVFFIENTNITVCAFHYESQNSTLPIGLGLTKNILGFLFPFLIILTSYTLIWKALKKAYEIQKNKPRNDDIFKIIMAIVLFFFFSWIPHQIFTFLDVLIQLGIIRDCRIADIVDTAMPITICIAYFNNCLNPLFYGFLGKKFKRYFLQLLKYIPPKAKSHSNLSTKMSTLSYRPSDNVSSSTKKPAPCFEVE
Description: Angiotensin II receptor antagonist activity may be determined using commercially available flashplates coated with the AT1 or AT2 receptor which provide a rapid and high throughput means to evaluate compounds compared to traditional filtration based assays (Regina M. Van Der Hee et al., Journal of Biomolecular Screening 10(2); 2005; 118-126).
AT1 receptor affinity was determined in a radioligand binding format using commercially available flashplate technology. Human recombinant AT1 receptor were coated on the wells of a 96 well flashplate and test compounds were diluted and added to wells at a final concentration range of 50 μM to 1 μM. Total binding was determined in the absence of compound and non-specific binding in the presence of 10 μM cold Angiotensin II. ^125I labeled Sar^1, Ile^8-Angiotensin II was added to all wells at Kd concentration and left for 2 hours at room temperature to equilibrate. Plates were read on a TopCount (Perkin Elmer) and concentration-response curves constructed using commercial curve fitting software. The Ki was determined via interpolation and the use of the Cheng-Prussof equation.

[2] = biological target: T2, human PPARγ LBD bound to Gal4 DBD (Homo sapiens, UniProt P37231); assay: PPARγ transfection luciferase reporter assay in HepG2 cells; format: cell-based; settings: for Emax: HepG2, 24 h, compared to full agonist response (standard TZD full agonist), read-out: PPARγ % activation; for EC50: HepG2, 24 hours exposure
T2 construct: expressed in transfected cells; host or cells: HepG2
T2 sequence (P37231 238-503 limits assumed): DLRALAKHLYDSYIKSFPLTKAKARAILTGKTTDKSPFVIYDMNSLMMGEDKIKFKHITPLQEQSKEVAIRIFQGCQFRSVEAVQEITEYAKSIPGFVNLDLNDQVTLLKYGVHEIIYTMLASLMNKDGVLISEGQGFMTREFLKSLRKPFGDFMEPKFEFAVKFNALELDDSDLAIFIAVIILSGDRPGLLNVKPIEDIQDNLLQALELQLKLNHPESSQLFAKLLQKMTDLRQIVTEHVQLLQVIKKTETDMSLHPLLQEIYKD
Description: PPARγ agonist activity may be determined by a cell line transiently transfected with PPARγ bound to a DNA binding domain that controls luciferase expression. The degree of receptor agonism is measured by the amount of luciferase activity after compound treatment. The ratio of treated cells over vehicle control cells provides a measure of fold activation and allows an EC50 (shown in tables I and II as […] EC50) and % activation to be calculated
A human hepatocellular carcinoma cell line (HepG2) was subcultured into dishes and transiently transfected with DNA to allow expression of human PPARγ LBD bound to Gal4 DBD. Luciferase reporter gene and β-galactosidase control genes were co-transfected to enable activity to be measured. After 24 hours, cells were exposed to compounds in the concentration range of 0.1 nM-100 μM and left for a further 24 hours. Luciferase activity is determined by luminometry and PPARγ activation is expressed as a ratio of luciferase activity to β-galactosidase activity to account for transfection efficiency. Potency is described by an EC50 defined as the concentration of compound producing receptor activation equivalent to 50% of the maximum for that compound (shown in Table I as transfection EC50). The maximum fold activation is a measure of efficacy and is expressed as a percentage of a reference full agonist run in the same assay. Efficacy is described by % activation of receptor relative to a standard thiazolidinedione (TZD) full agonist.

Row | Structure (SMILES) | IC50 [1] [nM] | Emax [2] [%] | EC50 [2] [nM]
1 | CCc1nc2c(C)cc(CC(O)C3CC3)nc2n1[C@H]1CCc2cc(-c3ccccc3-c3nnn[nH]3)ccc21 (stereo partly drawn) [Example 19, 2 (3-((1S)-5-(2-(1H-tetrazol-5-yl)phenyl)-2,3-dihydro-1H-inden-1-yl)-2-ethyl-7-methyl-3H-imidazo[4,5-b]pyridin-5-yl)-1-cyclopropylethanol] | 7.2 | 20 | 105
2 | CCc1nc2c(C)cc(Cc3ccccn3)nc2n1[C@H]1CCc2cc(-c3ccccc3-c3nnn[nH]3)ccc21 [Example 2, 3-((1S)-5-(2-(1H-tetrazol-5-yl)phenyl)-2,3-dihydro-1H-inden-1-yl)-2-ethyl-7-methyl-5-(pyridin-2-ylmethyl)-3H-imidazo[4,5-b]pyridine] | 3.5 | 29 | 105
3 | CCCc1nc2c(C)cc(CC[C@@H](C)O)nc2n1[C@H]1CCc2cc(-c3ccccc3-c3nnn[nH]3)ccc21 [Example 40, (R)-4-(3-((1S)-5-(2-(1H-tetrazol-5-yl)phenyl)-2,3-dihydro-1H-inden-1-yl)-7-methyl-2-propyl-3H-imidazo[4,5-b]pyridin-5-yl)butan-2-ol] | 0.8 | 20 | 770
4 | CCc1nc2c(C)cc(CCc3cccc(OC)c3)nc2n1[C@H]1CCc2cc(-c3ccccc3-c3nnn[nH]3)ccc21 [Example 29, 3-((1S)-5-(2-(1H-tetrazol-5-yl)phenyl)-2,3-dihydro-1H-inden-1-yl)-5-(3-methoxyphenethyl)-2-ethyl-7-methyl-3H-imidazo[4,5-b]pyridine] | 2.9 | 31 | 195
5 | CCc1nc2c(C)cc([C@@H](OC)C(C)C)nc2n1[C@H]1CCc2cc(-c3ccccc3-c3nnn[nH]3)ccc21 [Example 12, 3-((1S)-5-(2-(1H-tetrazol-5-yl)phenyl)-2,3-dihydro-1H-inden-1-yl)-2-ethyl-5-((S)-1-methoxy-2-methylpropyl)-7-methyl-3H-imidazo[4,5-b]pyridine] | 0.7 | 17 | 460
6 | CCc1nc2c(C)cc(COC(C)(C)C)nc2n1[C@H]1CCc2cc(-c3ccccc3-c3nnn[nH]3)ccc21 [Example 5, 3-((1S)-5-(2-(1H-tetrazol-5-yl)phenyl)-2,3-dihydro-1H-inden-1-yl)-5-(tert-butoxymethyl)-2-ethyl-7-methyl-3H-imidazo[4,5-b]pyridine] | 2.9 | 48 | 290
7 | CCc1nc2c(C)cc(CC3CCCCC3=O)nc2n1[C@H]1CCc2cc(-c3ccccc3-c3nnn[nH]3)ccc21 (stereo partly drawn) [Example 63, 2-((3-((1S)-5-(2-(1H-tetrazol-5-yl)phenyl)-2,3-dihydro-1H-inden-1-yl)-2-ethyl-7-methyl-3H-imidazo[4,5-b]pyridin-5-yl)methyl)cyclohexanone] | 2.4 | 27 | 295
8 | CCc1nc2c(C)cc(CCc3cccnc3)nc2n1[C@H]1CCc2cc(-c3ccccc3-c3nnn[nH]3)ccc21 [Example 24, 3-((1S)-5-(2-(1H-tetrazol-5-yl)phenyl)-2,3-dihydro-1H-inden-1-yl)-2-ethyl-7-methyl-5-(2-(pyridin-3-yl)ethyl)-3H-imidazo[4,5-b]pyridine] | 2.1 | 28 | 425
9 | CCc1nc2c(C)cc(CCC3(O)CCOC3)nc2n1[C@H]1CCc2cc(-c3ccccc3-c3nnn[nH]3)ccc21 (stereo partly drawn) [Example 54, 3-(2-(3-((1S)-5-(2-(1H-tetrazol-5-yl)phenyl)-2,3-dihydro-1H-inden-1-yl)-2-ethyl-7-methyl-3H-imidazo[4,5-b]pyridin-5-yl)ethyl)-tetrahydrofuran-3-ol] | 1 | 26 | 535
10 | CCc1nc2c(C)cc(Cc3ccccc3)nc2n1[C@H]1CCc2cc(-c3ccccc3-c3nnn[nH]3)ccc21 [Example 1, 3-((1S)-5-(2-(1H-tetrazol-5-yl)phenyl)-2,3-dihydro-1H-inden-1-yl)-5-benzyl-2-ethyl-7-methyl-3H-imidazo[4,5-b]pyridine] | 4.5 | 27 | 90
11 | CCc1nc2c(C)cc(CC3CCCC3O)nc2n1[C@H]1CCc2cc(-c3ccccc3-c3nnn[nH]3)ccc21 (single isomer, unassigned) [Example 65] | 2.3 | 22 | 245

Other lines, results leading:

Row | IC50 [1] [nM] | Emax [2] [%] | EC50 [2] [nM] | Structure (SMILES)
12 | 2.4 | 38 | 150 | CCc1nc2c(C)cc(CC[C@@](C)(O)C(C)C)nc2n1[C@H]1CCc2cc(-c3ccccc3-c3nnn[nH]3)ccc21 [Example 55, (R)-1-(3-((1S)-5-(2-(1H-tetrazol-5-yl)phenyl)-2,3-dihydro-1H-inden-1-yl)-2-ethyl-7-methyl-3H-imidazo[4,5-b]pyridin-5-yl)-3,4-dimethylpentan-3-ol]
13 | 2.5 | 31 | 110 | CCc1nc2c(C)cc(CCC(O)(CC)CC)nc2n1[C@H]1CCc2cc(-c3ccccc3-c3nnn[nH]3)ccc21 [Example 56, 1-(3-((1S)-5-(2-(1H-tetrazol-5-yl)phenyl)-2,3-dihydro-1H-inden-1-yl)-2-ethyl-7-methyl-3H-imidazo[4,5-b]pyridin-5-yl)-3-ethylpentane-3-ol]
14 | 6.5 | 34 | 45 | CCc1nc2c(C)cc(CCC(C)(O)C(C)(C)C)nc2n1[C@H]1CCc2cc(-c3ccccc3-c3nnn[nH]3)ccc21 (stereo partly drawn) [Example 68, 1-(3-((1S)-5-(2-(1H-tetrazol-5-yl)phenyl)-2,3-dihydro-1H-inden-1-yl)-2-ethyl-7-methyl-3H-imidazo[4,5-b]pyridin-5-yl)-3,4,4-trimethylpentan-3-ol]
15 | 4 | 36 | 30 | CCc1nc2c(C)cc(CCC(C)(O)CC(C)C)nc2n1[C@H]1CCc2cc(-c3ccccc3-c3nnn[nH]3)ccc21 (stereo partly drawn) [Example 69, 1-(3-((1S)-5-(2-(1H-tetrazol-5-yl)phenyl)-2,3-dihydro-1H-inden-1-yl)-2-ethyl-7-methyl-3H-imidazo[4,5-b]pyridin-5-yl)-3,5-dimethylhexan-3-ol]
16 | 2.5 | 28 | 285 | CCc1nc2c(C)cc(CC[C@@H](O)C(C)C)nc2n1[C@H]1CCc2cc(-c3ccccc3-c3nnn[nH]3)ccc21 [Example 57, (R)-1-(3-((1S)-5-(2-(1H-tetrazol-5-yl)phenyl)-2,3-dihydro-1H-inden-1-yl)-2-ethyl-7-methyl-3H-imidazo[4,5-b]pyridin-5-yl)-4-methyl pentan-3-ol]
17 | 0.5 | 23 | 390 | CCCc1nc2c(C)cc(CCC(C)(C)O)nc2n1[C@H]1CCc2cc(-c3ccccc3-c3nnn[nH]3)ccc21 [Example 35, 4-(3-((1S)-5-(2-(1H-tetrazol-5-yl)phenyl)-2,3-dihydro-1H-inden-1-yl)-7-methyl-2-propyl-3H-imidazo[4,5-b]pyridin-5-yl)-2-methylbutan-2-ol]
18 | 5 | 21 | 410 | CCc1nc2c(C)cc(CC(C)=O)nc2n1[C@H]1CCc2cc(-c3ccccc3-c3nnn[nH]3)ccc21 [Example 14, 1-(3-((1S)-5-(2-(1H-tetrazol-5-yl)phenyl)-2,3-dihydro-1H-inden-1-yl)-2-ethyl-7-methyl-3H-imidazo[4,5-b]pyridin-5-yl)propan-2-one]
